Laboratory results as given in article PMC12446565, “Perinatal Maturation of Drug Transporters and Claudin‐5 at the Blood–Brain Barrier” (CNS Neuroscience & Therapeutics, 2025).
Read-outs that look alike come from different tables or passages of the source.

What was measured:
[1] = Swiss, mouse, in vivo
Procedure: (§1) Mice were then decapitated according to selected time points, with blood samples collected following decapitation. The brain was then removed from the skull. For each mouse, the brain hemispheres and two blood samples were weighed in Econo glass vials for liquid scintillation counting (Perkin Elmer). All samples were treated with a tissue solubilizer (Solvable, Perkin Elmer). Blood samples were in addition decolored with 0.2 mL of 30% hydrogen peroxide solution to avoid color quenching issues. After complete tissue sample digestion (24 h in a water bath at 45°C), the vials were cooled and mixed with Ultima‐gold XR (Perkin Elmer). The radioactivity in each vial, expressed in disintegrations per minute (dpm) for ^3H and ^14C, was counted in a Perkin Elmer Tri‐Carb counter.
For [^3H]rosuvastatin, data collection was performed at 5 and 7 min post i.p. injection. […] This avoids quantification bias caused by the formation of possible radiolabelled metabolites.
First, the vascular volume (V vasc, μL/g) was estimated for each mouse as the brain volume of distribution (V d) of [^14C]sucrose: […]

[2] = BBB integrity: vascular volume (V vasc) of [14C]sucrose after i.p. injection; assay type: in vivo, Swiss mice; conditions: for Kp at 5 min: Swiss, mouse, brain/blood, ip, 0.31 MBq/kg, 5 min post i.p. injection
Procedure: as §1
First, the vascular volume (V vasc, μL/g) was estimated for each mouse as the brain volume of distribution (V d) of [^14C]sucrose:
[^14C]sucrose V d was calculated as the ratio of midbrain to blood carbon‐14 associated radioactivity (dpm/g) measured at 5 min post i.p. injection. Vvasc=Vdsucrose=Xsucrose,brain/Csucrose,blood
Where X sucrose,brain (dpm/g), is the calculated amount of [^14C]sucrose from the brain and C sucrose,blood (dpm/μL) its blood concentration. The data for any animal whose V vasc was an aberrant value was excluded from the study.
The vascular volume based [^14C]sucrose calculation was used as the outcome parameter for BBB integrity. Higher levels in V vasc indicate leakage of [^14C]sucrose into the brain parenchyma because of BBB leakage.

## CC(C)c1nc(N(C)S(C)(=O)=O)nc(-c2ccc(F)cc2)c1/C=C/[C@@H](O)C[C@@H](O)CC(=O)O [3H-Rosuvastatin, rosuvastatin]
[1]
  decrease of cerebral (brain) transport at P30 compared to P15: 6.8 fold

## OC[C@H]1O[C@@](CO)(O[C@H]2O[C@H](CO)[C@@H](O)[C@H](O)[C@H]2O)[C@@H](O)[C@@H]1O [14C-Sucrose, sucrose]
[2]; mice at P5, brain/blood ratio, read-out: Vv, Mean
  Kp at 5 min: 0.0276
[2]; mice at P5, read-out: Vv, Median
  Kp at 5 min: 0.0235
[2]; mice at P15, brain/blood ratio, read-out: Vv, Mean
  Kp at 5 min: 0.0272
[2]; mice at P15, read-out: Vv, Median
  Kp at 5 min: 0.0256
[2]; mice at P30, brain/blood ratio, read-out: Vv, Mean
  Kp at 5 min: 0.0279
[2]; mice at P30, read-out: Vv, Median
  Kp at 5 min: 0.0292
[2]; mice at P5, P15 and P30
  V vasc, comparison between ages: did not differ between P5, P15, and P30
